Test system: 186277-243-T-J2-PDC complex spheroids, viability
Test: Anticancer human tumor 186277-243-T-J2-PDC patient-derived colon adenocarcinoma cell line growth inhibition [RAS]
Settings: for viability, T/C: stronger effect = lower value
How it was run: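 Agents were tested in combination matrices in half-log decrements from a top concentration at or near clinical Cmax (10 microM if undetermined). Targets were multi-cell spheroids of tumour lines plus HUVEC and MSC stromal cells.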
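Also: spheroids exposed to compounds for 7 days before viability read.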

In the case of `C[C@@H](NC(=O)c1ncnc(N)c1Cl)c1ncc(C(=O)Nc2cc(C(F)(F)F)c(Cl)cn2)s1` + CCn1c(-c2cc(N3CCN(C)CC3)cnc2C(C)OC)c2c3cc(ccc31)-c1csc(n1)CC(NC(=O)C1CC1C)C(=O)N1CCCC(N1)C(=O)OCC(C)(C)C2, the IC50 (curve of first compound, second compound 0.000949 µM) is reported as > 10 µM, the IC50 (curve of first compound, second compound 0.003 µM) is reported as > 10 µM and the IC50 (curve of first compound, second compound 0.00949 µM) is reported as 3.63 µM. For the same compound, the IC50 (curve of first compound, second compound 0.03 µM) was < 0.0316 µM, the IC50 (curve of first compound, second compound 0.0949 µM) was < 0.0316 µM and the IC50 (curve of first compound, second compound 0.3 µM) was < 0.0316 µM. For the same compound, the viability, T/C (second compound 0.000949 µM, first compound 0.0316 µM) was 104%, the viability, T/C (second compound 0.000949 µM, first compound 0.1 µM) was 87.5% and the viability, T/C (second compound 0.000949 µM, first compound 0.316 µM) was 88%. The viability, T/C (second compound 0.000949 µM, first compound 1 µM) was 88.7%, the viability, T/C (second compound 0.000949 µM, first compound 3.16 µM) was 85.9% and the viability, T/C (second compound 0.000949 µM, first compound 10 µM) was 73.6%. The viability, T/C (second compound 0.003 µM, first compound 0.0316 µM) was 108%, the viability, T/C (second compound 0.003 µM, first compound 0.1 µM) was 114% and the viability, T/C (second compound 0.003 µM, first compound 0.316 µM) was 109%. For the same compound, the viability, T/C (second compound 0.003 µM, first compound 1 µM) was 82.6%, the viability, T/C (second compound 0.003 µM, first compound 3.16 µM) was 93.2% and the viability, T/C (second compound 0.003 µM, first compound 10 µM) was 54.4%. The viability, T/C (second compound 0.00949 µM, first compound 0.0316 µM) was 61.7%, the viability, T/C (second compound 0.00949 µM, first compound 0.1 µM) was 83.8% and the viability, T/C (second compound 0.00949 µM, first compound 0.316 µM) was 78.6%. It also gave a viability, T/C (second compound 0.00949 µM, first compound 1 µM) of 71.4%, a viability, T/C (second compound 0.00949 µM, first compound 3.16 µM) of 54.2% and a viability, T/C (second compound 0.00949 µM, first compound 10 µM) of 19.8%. For the same compound, the viability, T/C (second compound 0.03 µM, first compound 0.0316 µM) was 21.2%, the viability, T/C (second compound 0.03 µM, first compound 0.1 µM) was 23.7% and the viability, T/C (second compound 0.03 µM, first compound 0.316 µM) was 25.3%. The viability, T/C (second compound 0.03 µM, first compound 1 µM) was 20.9%, the viability, T/C (second compound 0.03 µM, first compound 3.16 µM) was 16.9% and the viability, T/C (second compound 0.03 µM, first compound 10 µM) was 10%. The viability, T/C (second compound 0.0949 µM, first compound 0.0316 µM) was 9.22%, the viability, T/C (second compound 0.0949 µM, first compound 0.1 µM) was 10.4% and the viability, T/C (second compound 0.0949 µM, first compound 0.316 µM) was 10%. The viability, T/C (second compound 0.0949 µM, first compound 1 µM) was 9.11%, the viability, T/C (second compound 0.0949 µM, first compound 3.16 µM) was 8.59% and the viability, T/C (second compound 0.0949 µM, first compound 10 µM) was 7.09%. It also gave a viability, T/C (second compound 0.3 µM, first compound 0.0316 µM) of 7.68%, a viability, T/C (second compound 0.3 µM, first compound 0.1 µM) of 8.08% and a viability, T/C (second compound 0.3 µM, first compound 0.316 µM) of 7.77%. The viability, T/C (second compound 0.3 µM, first compound 1 µM) was 7.85%, the viability, T/C (second compound 0.3 µM, first compound 3.16 µM) was 7.78% and the viability, T/C (second compound 0.3 µM, first compound 10 µM) was 4.79%.

With `Nc1ccn(C2OC(CO)C(O)C2(F)F)c(=O)n1` (centres undefined) the viability, T/C (compound 0.00316 µM) was 57.2% [middle of 4 runs], the viability, T/C (compound 0.01 µM) was 12.7% [middle of 4 runs] and the viability, T/C (compound 0.0316 µM) was 12% [middle of 4 runs]. The viability, T/C (compound 0.1 µM) was 12.9% [middle of 4 runs], the viability, T/C (compound 0.316 µM) was 10.6% [middle of 4 runs] and the viability, T/C (compound 1 µM) was 12.1% [middle of 4 runs]. The IC50 (curve of compound) was 3.81 nM [middle of 4 runs].

Source: PubChem BioAssay AID2060908 (Molecular Pharmacology Branch, DTP, NCI, 2025)
